The values that follow come from PMC3793924, “Targeting Androgen Receptor/Src Complex Impairs the Aggressive Phenotype of Human Fibrosarcoma Cells” (PLoS ONE, 2013).

Data set [1] has as its system NIH3T3 cells. The experiment in a line: Trans-well migration of NIH3T3 fibroblasts. The data set is classed as cell-based, mouse. To be noted: 6 h, EGF 100 ng/ml; for Inhibition of EGF-induced motility (Trans-well): quiescent NIH3T3 fibroblasts, Casodex 10 µM, S1 and Ss peptides 10 nM. How it is done: NIH3T3 cells were used. In A, cells were transfected with 3416 or 3424 ARE-Luc constructs with or without hAR-expressing plasmid and then made quiescent as reported in Methods. Cells were left unstimulated or stimulated for 18 h with 10 nM R1881. Luciferase activity was assayed, normalized using beta-gal as an internal control, and expressed as fold induction. Three independent experiments were performed in triplicate. Means and SEM are shown; n represents the number of experiments. […] After in vivo labeling with BrdU (100 μM), BrdU incorporation was analyzed by IF and expressed as % of total cells. Several independent experiments were performed in duplicate and data derived from at least 700 scored cells for each coverslip. Mean and SEM are shown. n represents the number of experiments. […] Quiescent NIH3T3 fibroblasts were used. In C, cells on coverslips were left unstimulated or stimulated for 18 h with the indicated compounds. […] After in vivo pulse with BrdU (100 μM), BrdU incorporation was analyzed by IF and expressed as % of total cells. Several independent experiments were performed in duplicate and the results were derived from at least 500 scored cells for each coverslip. Mean and SEM are shown. n represents the number of experiments. […] The Western blot of MCF-7 cell lysate with the anti-tubulin or the anti-EGFR antibody is shown for comparison. In D, cells were left untreated or treated for 6 h with the indicated compounds. […] Cells were allowed to migrate in collagen pre-coated Trans-well filters. Migrated cells were stained and counted as reported in Methods.

Data set [2] has as its system MMP-9. The experiment in a line: Protease activity of MMP-9 released from HT1080 cells. The class given is cell-based, human. As to conditions: quiescent HT1080 cells; for Inhibition of EGF-stimulated MMP-9 secretion (protease activity): EGF 100 ng/ml 5 min, Casodex 10 μM, S1 and Ss peptides 10 nM added 30 min before EGF.
In data set [3] the test system is HCT116 cells. The experiment in a line: BrdU incorporation in HCT116 cells. The data set is classed as cell-based, human. To be noted: quiescent HCT116 cells, EGF 100 ng/ml, 18 h; for Inhibition of EGF-induced BrdU incorporation: Casodex 10 μM, S1 and Ss peptides 10 nM. On the procedure: Quiescent human colon cancer-derived HCT116 cells were used. In A, cells on coverslips were left un-stimulated or stimulated for 18 h with the indicated compounds. […] After in vivo pulse with BrdU (100 μM), BrdU incorporation was analyzed by IF and expressed as % of total cells. Several independent experiments were performed in duplicate and the results were derived from at least 400 scored cells for each coverslip. Mean and SEM are shown. n represents the number of experiments. In B, the cells were left untreated or treated for 6 h with the indicated compounds. […] Cells were allowed to migrate in collagen-pre-coated Trans-well filters. Migrated cells were stained and counted as reported in Methods. Results were derived from several independent experiments, each performed in duplicate. Data are expressed as relative increase. Mean and SEM are shown. n represents the number of experiments. Quiescent human pancreatic cancer-derived KP-2 cells were used. In C, cells on coverslips were left unstimulated or stimulated for 18 h with the indicated compounds. […] After in vivo pulse with BrdU (100 μM), BrdU incorporation was analyzed by IF and expressed as % of total cells. Several independent experiments were performed in duplicate and the results were derived from at least 400 scored cells for each coverslip. Mean and SEM are shown. n represents the number of experiments. In D, the cells were left untreated or treated for 6 h with the indicated compounds. […] Cells were allowed to migrate in collagen-pre-coated Trans-well filters. Migrated cells were stained and counted as reported in Methods. Results were derived from several independent experiments, each performed in duplicate. Data are expressed as relative increase. Mean and SEM are shown. n represents the number of experiments. […] After in vivo labeling with 100 μM BrdU (Sigma), DNA synthesis was analyzed by immunofluorescence, using diluted (1:50 in PBS) mouse monoclonal anti-BrdU antibody (clone BU-1, from GE Healthcare).
Background: Incorporation of labelled thymidine or its analogues reports DNA synthesis.

Data set [4] has as its system HT1080 cells. In words: Trans-well migration/invasiveness of HT1080 cells. The class given is cell-based, human. To be noted: quiescent HT1080 cells, collagen-coated Trans-well, 6 h, EGF 100 ng/ml; Casodex 10 μM; S1 and Ss peptides 10 nM.
Data set [5] has as its system LNCaP cells. The experiment in a line: Trans-well migration of LNCaP cells. The class given is cell-based, human. To be noted: quiescent LNCaP cells, 6 h, EGF 100 ng/ml; for Inhibition of EGF-induced motility (transmigration): Casodex 10 μM, S1 and Ss peptides 1 nM.
The test system of data set [6] is NIH3T3 cells. In words: BrdU incorporation in NIH3T3 fibroblasts. The data set is classed as cell-based, mouse. As to conditions: EGF 100 ng/ml, 18 h; for Inhibition of EGF-induced BrdU incorporation: quiescent NIH3T3 fibroblasts, Casodex 10 μM, S1 and Ss peptides 1 nM. How it is done: NIH3T3 cells were used. In A, cells were transfected with 3416 or 3424 ARE-Luc constructs with or without hAR-expressing plasmid and then made quiescent as reported in Methods. Cells were left unstimulated or stimulated for 18 h with 10 nM R1881. Luciferase activity was assayed, normalized using beta-gal as an internal control, and expressed as fold induction. Three independent experiments were performed in triplicate. Means and SEM are shown; n represents the number of experiments. […] After in vivo labeling with BrdU (100 μM), BrdU incorporation was analyzed by IF and expressed as % of total cells. Several independent experiments were performed in duplicate and data derived from at least 700 scored cells for each coverslip. Mean and SEM are shown. n represents the number of experiments. […] Quiescent NIH3T3 fibroblasts were used. In C, cells on coverslips were left unstimulated or stimulated for 18 h with the indicated compounds. […] After in vivo pulse with BrdU (100 μM), BrdU incorporation was analyzed by IF and expressed as % of total cells. Several independent experiments were performed in duplicate and the results were derived from at least 500 scored cells for each coverslip. Mean and SEM are shown. n represents the number of experiments. […] The Western blot of MCF-7 cell lysate with the anti-tubulin or the anti-EGFR antibody is shown for comparison. In D, cells were left untreated or treated for 6 h with the indicated compounds. […] Cells were allowed to migrate in collagen pre-coated Trans-well filters. Migrated cells were stained and counted as reported in Methods. Results were derived from several independent experiments, each performed in duplicate. Data are expressed as relative increase. Mean and SEM are shown. n represents the number of experiments. […] (PPTX) Click here for additional data file.

For data set [7], the system named is AR/Src complex. Also noted: method as in PMID 17486077. To be noted: androgen-challenged prostate cancer LNCaP cells; cited from earlier work. The source says: Such a crosstalk has been previously analyzed in prostate cancer-derived LNCaP cells. […] The S1 peptide derives from the 377-386 amino-acid sequence of AR that is rich in prolines and is responsible for association of AR with t ...

Consider `CC(O)(CS(=O)(=O)c1ccc(F)cc1)C(=O)Nc1ccc(C#N)c(C(F)(F)F)c1` (centres unmarked) [Casodex], for which the “Inhibition of EGF-induced motility (Trans-well)” value (shortened to “Inhibition … (Trans-well)”) in data set [1] is “significantly inhibit both the responses”. In addition, the “Inhibition of EGF-stimulated MMP-9 secretion (protease activity)” value (shortened to “Inhibition … (protease activity)”) in data set [2] is given as “inhibits this response”. Further, the “Inhibition of EGF-induced BrdU incorporation” value in data set [3] is on record as “similarly inhibit these EGF-elicited responses”; in data set [6], “significantly inhibit both the responses”. Also, in data set [4], the “Inhibition of EGF-induced invasiveness (trans-migration)” value (from here on “Inhibition of EGF-induced invasiveness”) is given as “inhibited to a similar extent”. For the same molecule, the “Inhibition of EGF-induced motility (transmigration)” value in data set [5] is given as “inhibited to a similar extent”.
On to Ac-HPKPARIPHP-NH2 [Ss peptide], for which the “Inhibition … (Trans-well)” value in data set [1] is listed as “slightly modifies”. Besides, the “Inhibition … (protease activity)” value in data set [2] is given as “negligible inhibitory effect”. Besides, the “Inhibition of EGF-induced BrdU incorporation” value was “does not interfere with the EGF-elicited responses” in data set [3] and “slightly modifies DNA synthesis” in data set [6]. For the same molecule, the “Inhibition of EGF-induced invasiveness” value in data set [4] is “not by Ss peptide”.
As to Ac-PPPHPHARIK-NH2 [S1 peptide], the “Inhibition … (Trans-well)” value in data set [1] is “significantly inhibit both the responses”. In addition, in data set [2], the “Inhibition … (protease activity)” value was “inhibits the EGF effect on MMP-9 secretion”. For the same molecule, the figures for the “Inhibition of EGF-induced BrdU incorporation” value in data set [3] and in data set [6] were “similarly inhibit these EGF-elicited responses” and “significantly inhibit both the responses”, respectively. In data set [4], the “Inhibition of EGF-induced invasiveness” value is on record as “inhibited to a similar extent”. Further, in data set [5], the “Inhibition of EGF-induced motility (transmigration)” value is listed as “inhibited to a similar extent”. Moreover, in data set [7], the “Competition for AR association with the Src-SH3 domain” value is “competes for this association”.
Consider “EGF: epidermal growth factor (Roche), used as stimulus at 100 ng/ml”, for which the Motility upon stimulation entry in data set [1] (quiescent NIH3T3 cells) is on record as “significantly increases”. For the same molecule, in data set [2] (EGF 100 ng/ml, 5 min), the “Increase of protease activity of MMP-9 released” value is reported as “about 2 fold”. For the same molecule, in data set [3], the “BrdU incorporation upon stimulation” value is “robustly increases BrdU incorporation”. For the same molecule, the “Motility in transmigration assay upon stimulation” value in data set [5] was “significantly increases the motility”. Further, in data set [6] (quiescent NIH3T3 cells, R1881 10 nM), the “BrdU incorporation (DNA synthesis) upon stimulation with the compound alone” value was “significantly increases BrdU incorporation”.
